Test results taken from PubChem BioAssay (NCI).
Values joined by “and” are separate entries in the source; they are usually repeats but may differ in a detail not shown here. Identical values can stand only once.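 Step 1: Grow cells in 96-well plates. Step 2: Expose to compound for 48 hours at 5 concentrations. Step 3: Interpolate endpoints linearly; if unreached, use highest concentration. Abbreviation: GI50, concentration required for 50% inhibition of growth. Definition used: TGI = concentration required for complete inhibition of growth.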

Legend:
Test in all cases: growth of human tumour cells (NCI), 48 h
[1] = tested on: SF-268 CNS
[2] = tested on: SK-MEL-28 melanoma
[3] = tested on: RXF 393 renal
[4] = tested on: NCI-H460 lung
[5] = tested on: SF-539 CNS
[6] = tested on: KM12 colon
[7] = tested on: SK-OV-3 ovarian
[8] = tested on: NCI-H23 lung
[9] = tested on: EKVX NSCLC
[10] = tested on: UACC-257 melanoma

| SMILES | TGI [1] [µM] | TGI [2] [µM] | TGI [3] [µM] | TGI [4] | TGI [5] [µM] | TGI [6] | TGI [7] [µM] | TGI [8] [µM] | TGI [9] [µM] | TGI [10] [µM] | GI50 [1] | GI50 [2] | GI50 [10] | GI50 [3] | GI50 [4] | GI50 [5] | GI50 [6] | GI50 [8] | GI50 [9] |
| --- | --- | --- | --- | --- | --- | --- | --- | --- | --- | --- | --- | --- | --- | --- | --- | --- | --- | --- | --- |
| COc1ccc(C[n+]2cccc(O)c2)cc1 | > 100 | > 100 | > 100 | > 100 µM | > 100 | > 100 µM | > 100 | > 100 | > 100 | – | – | – | – | – | – | – | – | – | – |
| Cc1cccc2c(N)c3cccc(C(=O)NCC[N+](C)(C)Cc4ccc(S(C)(=O)=O)cc4)c3nc12 | > 100 | > 100 | > 100 | > 100 µM | > 100 | > 100 µM | > 100 | > 100 | > 100 | > 100 | – | – | – | – | – | – | – | – | – |
| CC(=O)c1cc(CC2Cc3cc4c(cc3C2=O)CCC4)cc2c1CCC2 (stereo unspecified) | > 100 | > 100 | – | > 100 µM | > 100 | > 100 µM | > 100 | > 100 | > 100 | > 100 | – | – | – | – | – | – | – | – | – |
| CC(O)CC(=O)CO[C@H]1[C@H](O)[C@@H](O)[C@@H](O)[C@@H]2NC(=O)c3c(cc4c(c3O)OCO4)[C@H]21 (stereo partly specified) | 0.0626 | 8.03 | 0.131 | 0.188 µM | 0.0712 | 0.202 µM | – | 0.457 | 0.14 | 1.02 | – | – | – | – | – | – | – | – | – |
| O=c1oc2ccc3ccccc3c2cc1-c1nc(-c2ccc([N+](=O)[O-])cc2)n[nH]1 | 4.56 | > 100 | – | > 100 µM | 39.4 | > 100 µM | 52.7 | 45.8 | > 100 | > 100 | – | – | – | – | – | – | – | – | – |
| COC(=O)CNC(=O)CNC(=O)CSc1nnc(COc2ccc(Cl)cc2)n1-c1ccccc1 | 51.6 | 56.3 | 36.8 | > 100 µM | > 100 | 47.3 µM | – | > 100 | > 100 | 40.5 | – | – | – | – | – | – | – | – | – |
| Clc1ccc(OCc2nnc3sc(SSc4nn5c(COc6ccc(Cl)cc6)nnc5s4)nn23)cc1 | > 100 | > 100 | – | > 100 µM | > 100 | > 100 µM | > 100 | > 100 | > 100 | > 100 | – | – | – | – | – | – | – | – | – |
| CC(=O)c1cc2c(s1)C(=O)c1ccsc1C2=O | 1.01 | 0.361 | 0.683 | – | 0.649 | 3.11 µM | 5.38 | 0.337 | 3.24 | 0.285 | – | – | – | – | – | – | – | – | – |
| CCOc1cc(/C=N/c2nc3cc4sc(/N=C/c5ccc(O)c(OCC)c5)nc4cc3s2)ccc1O | > 100 | 42.7 | > 100 | > 100 µM | 62.3 | > 100 µM | > 100 | > 100 | > 100 | > 100 | – | – | – | – | – | – | – | – | – |
| CCOC(CN(C)C(=O)Nc1ccc(Cl)c(Cl)c1)OCC | > 10 | > 10 | > 10 | > 10 µM | > 10 | > 10 µM | > 10 | > 10 | > 10 | > 10 | – | – | – | – | – | – | – | – | – |
| O=C1NC(=S)N/C1=C\c1ccc(Cl)cc1 | > 100 | > 100 | > 100 | – | > 100 | > 100 µM | > 100 | > 100 | > 100 | – | – | – | – | – | – | – | – | – | – |
| CSCCC(NC(=O)Cc1ccc(C(=O)c2ccccc2)cc1)C(=O)N1CCN(CCCCN2c3ccccc3Sc3cc(N=[N+]=[N-])ccc32)CC1 (stereo unspecified) | > 100 | – | > 100 | > 100 µM | – | > 100 µM | > 100 | > 100 | > 100 | > 100 | – | – | – | – | – | – | – | – | – |
| COC(O)C(=O)c1c2c(cc3c1CCC3)CCC2 (stereo unspecified) | > 100 | > 100 | – | > 100 µM | > 100 | > 100 µM | > 100 | > 100 | > 100 | > 100 | – | – | – | – | – | – | – | – | – |
| CN1C(=O)N/C(=C\c2ccc(S(=O)(=O)N/N=C/c3ccccc3)cc2)C1=O | > 100 | > 100 | 98.1 | 34.4 µM | – | 82.1 µM | > 100 | > 100 | > 100 | > 100 | – | – | – | – | – | – | – | – | – |
| N#CC(NNC(=O)c1c(Cl)c(Cl)c(Cl)c(Cl)c1-c1nc2ccc(C(=O)c3ccccc3)cc2[nH]1)c1ccccc1 (stereo unspecified) | > 100 | > 100 | 22.8 | – | 14.5 | > 100 µM | 69.8 | 90.3 | > 100 | > 100 | – | – | – | – | – | – | – | – | – |
| CC[C@@]1(O)C(=O)OCc2c1cc1n(c2=O)Cc2cc3c(CN(C)C)c(O)ccc3nc2-1 | – | – | – | 0.499 µM and 1.58 µM and 0.222 µM | – | 7.58 µM and 15.1 µM and 12.2 µM | – | – | – | – | < 0.01 µM and 0.00517 µM and 0.0175 µM | 0.299 µM and 1.36 µM | 0.106 µM and 0.0677 µM and 0.297 µM | 0.0188 µM and 0.0182 µM and 0.0775 µM | < 0.01 µM and 0.00456 µM and 0.021 µM | < 0.01 µM and 0.00383 µM and 0.0215 µM | 0.15 µM and 0.413 µM and 0.35 µM | 0.0088 µM and 0.0362 µM | 0.452 µM and 0.468 µM and 2.16 µM |
| Cc1cc(O)c2c(c1)C(C1OC(CO)C(O)C(O)C1O)c1cc(O)cc(O)c1C2=O (stereo unspecified) | > 100 | > 100 | – | > 100 µM | – | – | > 100 | > 100 | > 100 | > 100 | – | – | – | – | – | – | – | – | – |
| CCCCC(O)(c1ccccc1)C(O)(c1ccccc1)c1c(F)c(F)c(F)c(F)c1F (stereo unspecified) | 53.1 | 86.1 | – | 54.4 µM | – | – | > 100 | > 100 | 59.6 | 49.1 | – | – | – | – | – | – | – | – | – |
| C=C1C2C[C@@H]3O[C@H]4C[C@H]5O[C@@]6(C[C@@H]7O[C@]8(C[C@H](C)[C@@H]9O[C@@H]%10CC(C=O)O[C@@H]%10C[C@@H]9O8)C[C@H](C)[C@@H]7O6)C[C@H]5O[C@H]4[C@H](C)[C@H]3OC(=O)C[C@H]3CC[C@@H]4OC5[C@H]6O[C@]7(CC[C@H]8CC(=C)[C@H](CC[C@@H](C[C@H]1C)O2)O8)CC6O[C@@H]5[C@@H](O7)[C@H]4O3 (stereo partly specified) | – | – | – | > 1 µM | – | – | > 1 | 0.00195 | > 1 | – | – | – | – | – | – | – | – | – | – |
| O=C1CNc2cc(N3CCOCC3)ccc2N1 | > 100 | > 100 | > 100 | > 100 µM | – | > 100 µM | > 100 | > 100 | > 100 | > 100 | – | – | – | – | – | – | – | – | – |
| CCOc1ccc(N2C(=O)NC3(c4ccccc4)N(C)C(=O)N(C)C23c2ccccc2)cc1 (stereo unspecified) | – | > 100 | > 100 | – | > 100 | > 100 µM | > 100 | > 100 | > 100 | > 100 | – | – | – | – | – | – | – | – | – |
| O=S(=O)(O)c1ccc(Nc2ccnc3ccccc23)cc1 | > 100 | > 100 | > 100 | – | > 100 | > 100 µM | > 100 | > 100 | > 100 | > 100 | – | – | – | – | – | – | – | – | – |
